From ChEMBL document CHEMBL6092147, “Design of inhibitors of SARS-CoV-2 papain-like protease deriving from GRL0617: Structure-activity relationships” (Bioorg Med Chem, 2024)
pIC50: −log10 of the molar value.

The molecules below were run against T1, Replicase polyprotein 1ab (Severe acute respiratory syndrome coronavirus 2, UniProt P0DTD1) (assay: Inhibition of SARS-CoV-2 papain-like protease).
With Cc1ccc(N2CCN(CC(=O)O)CC2)cc1C(=O)NC1(c2cccc3ccccc23)CC1 the pIC50 was 7.40. Cc1ccccc1C(=O)NC(C)c1cccc2ccccc12 (racemic) gave a pIC50 of 4.63. For Cc1ccc(N2CCNCC2)cc1C(=O)NC1(c2cccc3ccccc23)CC1, the pIC50 was 7.52. Cc1ccc(N2CC3CN(C)CC3C2)cc1C(=O)NC1(c2cccc3ccccc23)CC1 (stereo not given) was tested, and the pIC50 was 6.89. For Cc1ccc(N2CCN(C(=N)N)CC2)cc1C(=O)NC1(c2cccc3ccccc23)CC1, the pIC50 was 6.85. Molecule CC(=O)Nc1cccc(Nc2ccc(C)c(C(=O)NC3(c4cccc5ccccc45)CC3)c2)c1 has a pIC50 of 6.30.

These molecules were tested against T1, Replicase polyprotein 1ab (assay: Inhibition of SARS-CoV-2 Main protease using Dabcyl-KLSAVLQSGFRKM-Edans-NH2 as substrate incubated for 30 mins by FRET based enzymatic assay).
Molecule COCCn1cc(-c2cc(-c3cccs3)cc([C@@H](C)NC(=O)c3cc(OCCN(C)C)ccc3C)c2)cn1 has a pIC50 of 6.96. Work on Cc1ccc(OCCN(C)C)cc1C(=O)N[C@H](C)c1cc(-c2cnn(CCO)c2)cc(-c2cccs2)c1 yielded a pIC50 of 6.96. In the case of Cc1ccc(OCCN(C)C)cc1C(=O)N[C@H](C)c1cc(-c2cnn(C(C)C)c2)cc(-c2cnn(C(F)F)c2)c1, the pIC50 was 6.80. COCCn1cc(-c2cc(-c3ccn(C)n3)cc([C@@H](C)NC(=O)c3cc(OCCN(C)C)ccc3C)c2)cn1 showed a pIC50 of 7.05. In the case of Cc1ccc(OCCN(C)C)cc1C(=O)N[C@H](C)c1cc(-c2cnn(CCN(C)C)c2)cc(-c2cccs2)c1, the pIC50 was 6.96. With Cc1ccc(OCCN(C)C)cc1C(=O)N[C@H](C)c1cc(-c2cnn(C(C)C)c2)cc(-c2ccn(C)n2)c1 the pIC50 was 6.96. Cc1ccc(OCCN(C)C)cc1C(=O)N[C@H](C)c1cc(-c2cnn(C)c2)cc(-c2cccs2)c1 was tested, and the pIC50 was 6.82. Molecule Cc1ccc(OCCN(C)C)cc1C(=O)N[C@H](C)c1cc(-c2cnn(C)c2)cc(-c2cnn(CC3CCOCC3)c2)c1 has a pIC50 of 7.15. With Cc1ccc(OCCN(C)C)cc1C(=O)N[C@H](C)c1cc(-c2cnn(CCO)c2)cc(-c2ccc(CN3CCCC3)s2)c1 the pIC50 was 7.15. Cc1ccc(OCCN(C)C)cc1C(=O)N[C@H](C)c1cc(-c2ccn(C)n2)cc(-c2ccn(C3CC3)n2)c1 showed a pIC50 of 6.92. In the case of Cc1ccc(OCCN(C)C)cc1C(=O)N[C@H](C)c1cc(-c2cnn(C)c2)cc(-c2ccc(CN3CCOCC3)o2)c1, the pIC50 was 6.92. For COCCn1cc(-c2cc(-c3cnn(CCO)c3)cc([C@@H](C)NC(=O)c3cc(OCCN(C)C)ccc3C)c2)cn1, the pIC50 was 7.00. Work on Cc1ccc(OCCN(C)C)cc1C(=O)N[C@H](C)c1cc(-c2cn[nH]c2)cc(-c2cccs2)c1 yielded a pIC50 of 7.10. Work on Cc1ccc(OCCN(C)C)cc1C(=O)N[C@H](C)c1cc(-c2ccc3cnn(C)c3c2)cc(-c2cnn(C)c2)c1 yielded a pIC50 of 6.89. Work on Cc1ccc(OCCN(C)C)cc1C(=O)N[C@H](C)c1cc(-c2cnn(CC3CCOCC3)c2)cc(-c2ccn(C)n2)c1 yielded a pIC50 of 7.10. Work on COCCn1cc(-c2cc(-c3cnn(CC(F)F)c3)cc([C@@H](C)NC(=O)c3cc(OCCN(C)C)ccc3C)c2)cn1 yielded a pIC50 of 6.70. In the case of Cc1ccc(OCCN(C)C)cc1C(=O)N[C@H](C)c1cc(-c2cnn(CCO)c2)cc(-c2cnn(CCN(C)C)c2)c1, the pIC50 was 6.85. Molecule Cc1ccc(OCCN(C)C)cc1C(=O)N[C@H](C)c1cc(-c2ccc(N3CCOCC3)nc2)cc(-c2cnn(C)c2)c1 has a pIC50 of 7.10. Cc1ccc(OCCN(C)C)cc1C(=O)N[C@H](C)c1cc(-c2cnn(C(F)F)c2)cc(-c2cccs2)c1 gave a pIC50 of 7.15. Molecule Cc1ccc(OCCN(C)C)cc1C(=O)N[C@H](C)c1cc(-c2cnn(C(F)F)c2)cc(-c2ccn(C)n2)c1 has a pIC50 of 7.05. COCCn1cc(-c2cc(-c3cnn(CC(N)=O)c3)cc([C@@H](C)NC(=O)c3cc(OCCN(C)C)ccc3C)c2)cn1 gave a pIC50 of 7.05. Cc1ccc(OCCN(C)C)cc1C(=O)N[C@H](C)c1cc(-c2cnn(C(F)F)c2)cc(-c2cnn(C3CC3)c2)c1 was tested, and the pIC50 was 7.05. With Cc1ccc(OCCN(C)C)cc1C(=O)N[C@H](C)c1cc(-c2ccn(C)n2)cc(-c2ccn(C)n2)c1 the pIC50 was 6.85. Molecule Cc1ccc(OCCN(C)C)cc1C(=O)N[C@H](C)c1cc(-c2cnn(CC(F)(F)F)c2)cc(-c2cccs2)c1 has a pIC50 of 7.15. Cc1ccc(OCCN(C)C)cc1C(=O)N[C@H](C)c1cc(-c2cnn(CCO)c2)cc(-c2ccnn2C)c1 was tested, and the pIC50 was 6.85. For CC(=O)n1cc(-c2cc(-c3cnn(C)c3)cc([C@@H](C)NC(=O)c3cc(OCCN(C)C)ccc3C)c2)cn1, the pIC50 was 6.96. In the case of COCCn1cc(-c2cc(-c3cnn(C(F)F)c3)cc([C@@H](C)NC(=O)c3cc(OCCN(C)C)ccc3C)c2)cn1, the pIC50 was 6.96. With Cc1ccc(OCCN(C)C)cc1C(=O)N[C@H](C)c1cc(-c2cnn(C)c2)cc(-c2cnn(CCO)c2)c1 the pIC50 was 7.05. Molecule Cc1ccc(OCCN(C)C)cc1C(=O)N[C@H](C)c1cc(-c2cnn(CCN3CCOCC3)c2)cc(-c2cccs2)c1 has a pIC50 of 7.22. In the case of COCCn1cc(-c2cc(-c3cncs3)cc([C@@H](C)NC(=O)c3cc(OCCN(C)C)ccc3C)c2)cn1, the pIC50 was 6.96. With Cc1ccc(OCCN(C)C)cc1C(=O)N[C@H](C)c1cc(-c2cnn(C)c2)cc(-c2cnn(CC(N)=O)c2)c1 the pIC50 was 7.15. In the case of Cc1ccc(OCCN(C)C)cc1C(=O)N[C@H](C)c1cc(-c2ccc(N3CCOCC3)nc2)cc(-c2cccs2)c1, the pIC50 was 7.05. For Cc1ccc(OCCN(C)C)cc1C(=O)N[C@H](C)c1cc(-c2cnn(CCO)c2)cc(-c2cnn(C(F)F)c2)c1, the pIC50 was 7.05. Work on Cc1ccc(OCCN(C)C)cc1C(=O)N[C@H](C)c1cc(-c2cnn(CC(N)=O)c2)cc(-c2cccs2)c1 yielded a pIC50 of 7.10.

What follows are molecules tested against T1, Replicase polyprotein 1ab (assay: Inhibition of SARS-CoV-2 papain-like protease (PLpro) by enzymatic assay).
Work on Cc1ccc(OCCN(C)C)cc1C(=O)N[C@H](C)c1cc(-c2cncs2)cc(-c2cncs2)c1 yielded a pIC50 of 7.00. CCn1ccc(-c2cc(-c3cnn(C(F)F)c3)cc([C@@H](C)NC(=O)c3cc(OCCN(C)C)ccc3C)c2)n1 was tested, and the pIC50 was 6.49. For Cc1ccc(OCCN(C)C)cc1C(=O)N[C@H](C)c1cc(-c2ccc(O)cc2)cc(-c2ccc(O)cc2)c1, the pIC50 was 6.80. With COCCn1cc(-c2cc(-c3cnn(CCOC)c3)cc([C@@H](C)NC(=O)c3cc(OCCN(C)C)ccc3C)c2)cn1 the pIC50 was 6.74. Cc1ccc(OCCN(C)C)cc1C(=O)N[C@H](C)c1cc(-c2ccccc2)cc(-c2ccccc2)c1 showed a pIC50 of 6.99. In the case of CCn1ccc(-c2cc(-c3cnn(C(C)C)c3)cc([C@@H](C)NC(=O)c3cc(OCCN(C)C)ccc3C)c2)n1, the pIC50 was 6.70. Molecule CCn1ccc(-c2cc(-c3ccn(C(F)F)n3)cc([C@@H](C)NC(=O)c3cc(OCCN(C)C)ccc3C)c2)n1 has a pIC50 of 6.40. Cc1ccc(OCCN(C)C)cc1C(=O)N[C@H](C)c1cc(-c2ccsc2)cc(-c2ccsc2)c1 was tested, and the pIC50 was 7.00. CCn1ccc(-c2cc(-c3cnn(CC(F)F)c3)cc([C@@H](C)NC(=O)c3cc(OCCN(C)C)ccc3C)c2)n1 was tested, and the pIC50 was 6.64. CCn1ccc(-c2cc(-c3cnn(C4COC4)c3)cc([C@@H](C)NC(=O)c3cc(OCCN(C)C)ccc3C)c2)n1 gave a pIC50 of 6.59. For COc1ncc(-c2cc(-c3cnc(OC)nc3)cc([C@@H](C)NC(=O)c3cc(OCCN(C)C)ccc3C)c2)cn1, the pIC50 was 5.71. With Cc1ccc(OCCN(C)C)cc1C(=O)N[C@H](C)c1cc(-c2cnn(C(F)F)c2)cc(-c2cnn(C(F)F)c2)c1 the pIC50 was 6.77. With Cc1ccc(OCCN(C)C)cc1C(=O)N[C@H](C)c1cc(-c2ccco2)cc(-c2ccco2)c1 the pIC50 was 6.70. Work on Cc1ccc(-c2cc(-c3ccc(C)s3)cc([C@@H](C)NC(=O)c3cc(OCCN(C)C)ccc3C)c2)s1 yielded a pIC50 of 6.85. In the case of Cc1ccc(OCCN(C)C)cc1C(=O)N[C@H](C)c1cc(-c2cnn(CCO)c2)cc(-c2cnn(CCO)c2)c1, the pIC50 was 6.80. CCn1ccc(-c2cc(-c3cnn(CC(F)(F)F)c3)cc([C@@H](C)NC(=O)c3cc(OCCN(C)C)ccc3C)c2)n1 gave a pIC50 of 6.57. In the case of Cc1ccc(OCCN(C)C)cc1C(=O)N[C@H](C)c1cc(-c2ccoc2)cc(-c2ccoc2)c1, the pIC50 was 7.10. CCn1ccc(-c2cc(-c3cnn(COC)c3)cc([C@@H](C)NC(=O)c3cc(OCCN(C)C)ccc3C)c2)n1 was tested, and the pIC50 was 6.62. Cc1ccc(OCCN(C)C)cc1C(=O)N[C@H](C)c1cc(-c2ccnn2C)cc(-c2ccnn2C)c1 showed a pIC50 of 6.34. Work on CCn1ccc(-c2cc(-c3ccn(CC(F)F)n3)cc([C@@H](C)NC(=O)c3cc(OCCN(C)C)ccc3C)c2)n1 yielded a pIC50 of 6.66. Work on CCn1ccc(-c2cc(-c3ccn(C)n3)cc([C@@H](C)NC(=O)c3cc(OCCN(C)C)ccc3C)c2)n1 yielded a pIC50 of 6.48. Cc1ccc(OCCN(C)C)cc1C(=O)N[C@H](C)c1cc(-c2c(C)noc2C)cc(-c2c(C)noc2C)c1 gave a pIC50 of 6.40. Molecule CCn1ccc(-c2cc(-c3ccn(CC)n3)cc([C@@H](C)NC(=O)c3cc(OCCN(C)C)ccc3C)c2)n1 has a pIC50 of 6.70. Molecule CCn1nccc1-c1cc(-c2ccnn2CC)cc([C@@H](C)NC(=O)c2cc(OCCN(C)C)ccc2C)c1 has a pIC50 of 6.36.

These molecules were tested against T1, Replicase polyprotein 1ab (assay: Inhibition of SARS-CoV-2 Main protease extracted from Escherichia coli BL21 (DE3) cells measured for 60 mins by FRET based analysis).
In the case of Cc1ccc(NC2CCN(C[C@@H]3CCCN3)CC2)cc1C(=O)N[C@H](C)c1cccc2ccccc12, the pIC50 was 6.00. Cc1ccc(NC(=O)[C@H]2CCCN2)cc1C(=O)N[C@H](C)c1cccc2ccccc12 showed a pIC50 of 5.85. For Cc1ccc(NC[C@@H](N)CNC[C@H]2CCCN2)cc1C(=O)N[C@H](C)c1cccc2ccccc12, the pIC50 was 5.96. Cc1ccc(NC[C@@H]2CCCCN2C)cc1C(=O)N[C@H](C)c1cccc2ccccc12 gave a pIC50 of 5.85. In the case of Cc1ccc(NCC2(C)CCN2)cc1C(=O)N[C@H](C)c1cccc2ccccc12 (mixture of isomers), the pIC50 was 6.10. Cc1ccc(NC[C@H]2CCCCN2C)cc1C(=O)N[C@H](C)c1cccc2ccccc12 gave a pIC50 of 5.82. For Cc1ccc(NC[C@H]2CCCN2C)cc1C(=O)N[C@H](C)c1cccc2ccccc12, the pIC50 was 5.82. Molecule Cc1ccc(NCC2CN(C)CCN2)cc1C(=O)N[C@H](C)c1cccc2ccccc12 (mixture of isomers) has a pIC50 of 5.82. Cc1ccc(NC(=O)C2CN(C(C)C)CCN2)cc1C(=O)N[C@H](C)c1cccc2ccccc12 (mixture of isomers) gave a pIC50 of 5.85. Cc1ccc(NC(=O)CNCC2CC2)cc1C(=O)N[C@H](C)c1cccc2ccccc12 gave a pIC50 of 5.89. Work on Cc1ccc(NC(=O)NCCN)cc1C(=O)N[C@H](C)c1cccc2ccccc12 yielded a pIC50 of 5.96. Cc1ccc(NCC2CNC2)cc1C(=O)N[C@H](C)c1cccc2ccccc12 gave a pIC50 of 6.00. For Cc1ccc(NC[C@]2(C)CCCN2)cc1C(=O)N[C@H](C)c1cccc2ccccc12, the pIC50 was 5.92. In the case of Cc1ccc(NC[C@@]2(C)CCCN2)cc1C(=O)N[C@H](C)c1cccc2ccccc12, the pIC50 was 5.96. Molecule Cc1ccc(NC(=O)CN2CCCC2)cc1C(=O)N[C@H](C)c1cccc2ccccc12 has a pIC50 of 5.96. Cc1ccc(NC(=O)C2CNCCN2)cc1C(=O)N[C@H](C)c1cccc2ccccc12 (mixture of isomers) was tested, and the pIC50 was 5.82.
